What was measured:
[1] = molecular target: T1, Alpha-2A adrenergic receptor (Homo sapiens, UniProt P08913); format: functional, cell-based
T1 sequence (P08913 whole entry): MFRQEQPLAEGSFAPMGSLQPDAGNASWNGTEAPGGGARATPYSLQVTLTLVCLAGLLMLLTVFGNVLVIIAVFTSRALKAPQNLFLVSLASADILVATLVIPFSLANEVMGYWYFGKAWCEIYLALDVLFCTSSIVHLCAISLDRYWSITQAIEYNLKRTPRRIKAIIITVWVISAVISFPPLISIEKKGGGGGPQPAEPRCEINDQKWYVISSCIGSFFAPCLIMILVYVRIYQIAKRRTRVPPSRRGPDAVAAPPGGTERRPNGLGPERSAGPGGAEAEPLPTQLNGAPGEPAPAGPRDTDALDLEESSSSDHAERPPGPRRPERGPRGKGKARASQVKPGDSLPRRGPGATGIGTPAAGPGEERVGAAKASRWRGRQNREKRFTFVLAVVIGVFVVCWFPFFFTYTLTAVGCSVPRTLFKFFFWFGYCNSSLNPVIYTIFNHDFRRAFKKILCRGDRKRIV

[2] = molecular target: T1, Alpha-2A adrenergic receptor; format: functional, cell-based; remark: listed apart in the source
[3] = molecular target: Gamma-aminobutyric acid receptor subunit alpha-1 (Rattus norvegicus, UniProt P62813); format: functional
[4] = molecular target: T2, 5-hydroxytryptamine receptor 1A (Homo sapiens, UniProt P08908); format: functional, cell-based
T2 sequence (P08908 whole entry): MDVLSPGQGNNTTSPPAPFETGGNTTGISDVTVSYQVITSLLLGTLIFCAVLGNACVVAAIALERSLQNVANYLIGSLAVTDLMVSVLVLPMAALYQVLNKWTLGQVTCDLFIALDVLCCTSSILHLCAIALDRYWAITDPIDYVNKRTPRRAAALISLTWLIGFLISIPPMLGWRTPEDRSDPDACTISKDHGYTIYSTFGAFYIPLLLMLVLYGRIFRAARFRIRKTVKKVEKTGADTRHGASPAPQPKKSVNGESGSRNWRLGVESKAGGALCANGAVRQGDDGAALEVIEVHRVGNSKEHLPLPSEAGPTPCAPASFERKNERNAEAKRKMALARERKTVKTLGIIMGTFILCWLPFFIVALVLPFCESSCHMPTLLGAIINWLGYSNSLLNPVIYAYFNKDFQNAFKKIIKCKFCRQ

Motilin receptor = Motilin receptor (Homo sapiens, UniProt O43193)
[5] = molecular target: Kappa-type opioid receptor (Homo sapiens, UniProt P41145)
[6] = molecular target: 3',5'-cyclic-AMP phosphodiesterase 4D (Homo sapiens, UniProt Q08499); format: functional
[7] = molecular target: Sodium-dependent dopamine transporter (Homo sapiens, UniProt Q01959)
[8] = molecular target: T3, Alpha-1A adrenergic receptor (Homo sapiens, UniProt P35348); format: functional, cell-based
T3 sequence (P35348 whole entry): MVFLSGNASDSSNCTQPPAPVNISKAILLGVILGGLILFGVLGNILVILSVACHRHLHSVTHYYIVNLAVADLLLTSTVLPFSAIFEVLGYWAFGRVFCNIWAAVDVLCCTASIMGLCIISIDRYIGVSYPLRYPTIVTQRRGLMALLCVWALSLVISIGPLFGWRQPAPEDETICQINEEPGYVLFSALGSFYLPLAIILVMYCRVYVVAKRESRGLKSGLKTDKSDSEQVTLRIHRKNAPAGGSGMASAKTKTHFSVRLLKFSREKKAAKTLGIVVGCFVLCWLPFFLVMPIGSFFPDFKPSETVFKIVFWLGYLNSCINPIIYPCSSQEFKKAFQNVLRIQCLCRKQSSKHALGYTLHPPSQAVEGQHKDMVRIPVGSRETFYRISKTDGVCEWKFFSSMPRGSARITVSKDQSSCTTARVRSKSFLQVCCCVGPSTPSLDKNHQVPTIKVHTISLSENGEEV

Prothrombin = Prothrombin (Homo sapiens, UniProt P00734); format: functional
Mu-type opioid receptor = Mu-type opioid receptor (Homo sapiens, UniProt P35372)
Cannabinoid receptor 1 = Cannabinoid receptor 1 (Homo sapiens, UniProt P21554); format: functional, cell-based
[9] = molecular target: T4, Muscarinic acetylcholine receptor M1 (Homo sapiens, UniProt P11229); format: functional
T4 sequence (P11229 whole entry): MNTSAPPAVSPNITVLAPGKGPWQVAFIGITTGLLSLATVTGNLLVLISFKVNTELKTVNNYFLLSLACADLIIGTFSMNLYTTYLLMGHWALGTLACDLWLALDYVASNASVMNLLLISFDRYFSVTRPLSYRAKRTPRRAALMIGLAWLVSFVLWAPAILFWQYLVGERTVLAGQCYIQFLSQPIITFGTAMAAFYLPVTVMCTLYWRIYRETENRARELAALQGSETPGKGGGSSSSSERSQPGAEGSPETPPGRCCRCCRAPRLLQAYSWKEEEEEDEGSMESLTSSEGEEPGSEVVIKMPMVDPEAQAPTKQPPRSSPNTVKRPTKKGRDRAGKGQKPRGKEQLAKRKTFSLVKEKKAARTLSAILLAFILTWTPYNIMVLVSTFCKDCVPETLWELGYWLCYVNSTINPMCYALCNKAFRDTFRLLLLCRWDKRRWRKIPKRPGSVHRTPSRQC
Note: assay procedure not described here.

Sequence of Motilin receptor (O43193 whole entry): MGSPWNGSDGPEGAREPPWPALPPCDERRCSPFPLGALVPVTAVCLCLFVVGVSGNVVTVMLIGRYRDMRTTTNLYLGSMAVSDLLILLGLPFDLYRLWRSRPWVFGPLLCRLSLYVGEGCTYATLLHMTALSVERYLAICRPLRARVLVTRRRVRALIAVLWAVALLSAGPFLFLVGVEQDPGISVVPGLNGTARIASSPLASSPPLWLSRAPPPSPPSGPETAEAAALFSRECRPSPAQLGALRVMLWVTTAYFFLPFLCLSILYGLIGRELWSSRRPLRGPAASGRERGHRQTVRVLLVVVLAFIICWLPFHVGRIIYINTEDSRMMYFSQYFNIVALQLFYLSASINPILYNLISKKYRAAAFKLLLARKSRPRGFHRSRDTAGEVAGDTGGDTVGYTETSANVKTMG
Sequence of Gamma-aminobutyric acid receptor subunit alpha-1 (P62813 whole entry): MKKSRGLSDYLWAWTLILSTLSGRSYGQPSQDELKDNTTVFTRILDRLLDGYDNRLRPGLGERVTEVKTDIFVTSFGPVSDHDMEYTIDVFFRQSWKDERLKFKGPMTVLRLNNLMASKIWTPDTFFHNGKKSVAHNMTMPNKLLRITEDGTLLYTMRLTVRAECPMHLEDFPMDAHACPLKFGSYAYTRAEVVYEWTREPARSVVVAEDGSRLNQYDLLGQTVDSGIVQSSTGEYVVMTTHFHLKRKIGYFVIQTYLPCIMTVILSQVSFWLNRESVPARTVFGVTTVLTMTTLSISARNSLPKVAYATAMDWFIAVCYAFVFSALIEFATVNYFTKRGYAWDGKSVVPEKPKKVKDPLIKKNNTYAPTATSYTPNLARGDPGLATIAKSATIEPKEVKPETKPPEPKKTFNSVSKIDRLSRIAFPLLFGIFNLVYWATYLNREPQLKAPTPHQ
Sequence of 3',5'-cyclic-AMP phosphodiesterase 4D (Q08499 whole entry): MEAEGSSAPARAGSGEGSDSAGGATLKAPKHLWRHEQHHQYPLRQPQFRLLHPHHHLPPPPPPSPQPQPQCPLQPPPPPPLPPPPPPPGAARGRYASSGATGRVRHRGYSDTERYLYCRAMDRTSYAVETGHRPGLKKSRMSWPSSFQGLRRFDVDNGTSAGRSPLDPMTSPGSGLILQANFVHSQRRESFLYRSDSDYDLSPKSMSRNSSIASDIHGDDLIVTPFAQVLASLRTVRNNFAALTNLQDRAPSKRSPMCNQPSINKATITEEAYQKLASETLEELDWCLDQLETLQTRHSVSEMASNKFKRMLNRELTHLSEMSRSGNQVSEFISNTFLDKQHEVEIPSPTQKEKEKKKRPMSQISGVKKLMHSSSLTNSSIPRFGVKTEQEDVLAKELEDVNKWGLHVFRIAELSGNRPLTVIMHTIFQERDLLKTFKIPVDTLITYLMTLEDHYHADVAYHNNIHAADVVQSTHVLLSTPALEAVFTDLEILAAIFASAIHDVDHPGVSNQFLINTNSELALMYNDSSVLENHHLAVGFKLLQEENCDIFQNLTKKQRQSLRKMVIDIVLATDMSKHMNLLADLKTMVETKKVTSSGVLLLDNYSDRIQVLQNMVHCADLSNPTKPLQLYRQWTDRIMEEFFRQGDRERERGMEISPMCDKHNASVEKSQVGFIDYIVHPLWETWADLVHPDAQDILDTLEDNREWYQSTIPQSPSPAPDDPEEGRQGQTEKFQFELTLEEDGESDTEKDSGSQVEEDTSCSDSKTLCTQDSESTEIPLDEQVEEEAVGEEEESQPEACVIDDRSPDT
Sequence of Sodium-dependent dopamine transporter (Q01959 whole entry): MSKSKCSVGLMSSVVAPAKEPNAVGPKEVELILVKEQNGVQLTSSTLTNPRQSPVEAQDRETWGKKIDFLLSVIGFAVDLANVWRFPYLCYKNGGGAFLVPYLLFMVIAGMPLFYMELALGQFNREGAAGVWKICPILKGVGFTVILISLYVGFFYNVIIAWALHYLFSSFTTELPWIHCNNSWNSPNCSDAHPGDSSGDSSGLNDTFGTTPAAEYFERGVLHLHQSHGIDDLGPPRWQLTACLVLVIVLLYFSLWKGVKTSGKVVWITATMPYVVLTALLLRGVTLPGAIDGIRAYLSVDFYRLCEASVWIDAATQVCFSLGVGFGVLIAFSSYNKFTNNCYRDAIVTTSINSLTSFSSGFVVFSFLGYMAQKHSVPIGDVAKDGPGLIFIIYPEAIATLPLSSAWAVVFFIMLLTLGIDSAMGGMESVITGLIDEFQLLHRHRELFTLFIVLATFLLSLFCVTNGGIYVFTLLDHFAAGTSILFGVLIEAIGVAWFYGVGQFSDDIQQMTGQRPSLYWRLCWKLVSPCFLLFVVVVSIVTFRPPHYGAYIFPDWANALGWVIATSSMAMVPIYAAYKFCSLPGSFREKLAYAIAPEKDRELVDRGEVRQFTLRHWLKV
Sequence of Kappa-type opioid receptor (P41145 whole entry): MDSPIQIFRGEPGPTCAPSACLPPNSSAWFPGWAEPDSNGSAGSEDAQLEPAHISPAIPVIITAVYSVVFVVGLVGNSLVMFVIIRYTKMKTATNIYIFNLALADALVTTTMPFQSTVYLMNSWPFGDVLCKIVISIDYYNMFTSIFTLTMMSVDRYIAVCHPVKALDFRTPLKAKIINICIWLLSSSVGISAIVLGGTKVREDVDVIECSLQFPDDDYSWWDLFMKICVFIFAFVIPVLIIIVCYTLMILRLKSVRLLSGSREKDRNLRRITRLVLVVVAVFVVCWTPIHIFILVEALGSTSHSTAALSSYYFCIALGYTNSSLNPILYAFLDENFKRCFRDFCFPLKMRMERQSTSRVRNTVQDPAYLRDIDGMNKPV
Sequence of Mu-type opioid receptor (P35372 whole entry): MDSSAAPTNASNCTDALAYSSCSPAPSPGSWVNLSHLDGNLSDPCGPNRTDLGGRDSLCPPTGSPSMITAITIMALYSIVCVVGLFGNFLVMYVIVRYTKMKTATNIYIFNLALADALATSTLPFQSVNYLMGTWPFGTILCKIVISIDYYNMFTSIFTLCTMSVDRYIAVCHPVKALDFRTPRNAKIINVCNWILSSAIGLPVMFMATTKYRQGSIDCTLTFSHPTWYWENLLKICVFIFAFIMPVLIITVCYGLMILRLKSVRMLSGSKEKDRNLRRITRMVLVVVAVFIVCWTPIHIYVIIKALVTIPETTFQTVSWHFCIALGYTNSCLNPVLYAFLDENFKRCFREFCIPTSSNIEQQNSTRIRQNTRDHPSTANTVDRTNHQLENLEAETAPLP
Sequence of Cannabinoid receptor 1 (P21554 whole entry): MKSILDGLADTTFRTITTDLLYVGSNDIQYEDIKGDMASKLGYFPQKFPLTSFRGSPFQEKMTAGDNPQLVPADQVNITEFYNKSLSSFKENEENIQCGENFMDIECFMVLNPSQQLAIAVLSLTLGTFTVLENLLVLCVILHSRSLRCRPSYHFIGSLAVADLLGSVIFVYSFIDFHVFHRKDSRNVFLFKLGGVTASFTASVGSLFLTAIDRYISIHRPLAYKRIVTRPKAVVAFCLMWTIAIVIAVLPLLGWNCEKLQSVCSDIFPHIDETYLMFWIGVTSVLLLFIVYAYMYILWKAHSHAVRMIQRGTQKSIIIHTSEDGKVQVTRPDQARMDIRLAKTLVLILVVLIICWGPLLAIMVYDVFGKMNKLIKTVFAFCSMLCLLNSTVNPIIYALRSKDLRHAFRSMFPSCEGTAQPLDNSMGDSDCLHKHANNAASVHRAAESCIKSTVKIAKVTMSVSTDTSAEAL

Structure (SMILES) | AC50 [8] | AC50 (Prothrombin) | AC50 (Mu-type opioid receptor) | also measured
CCCSc1ccc2nc(NC(=O)OC)[nH]c2c1 [ALBENDAZOLE] |  |  |  | AC50 [1]: > 10 µM; AC50 [2]: > 10 µM; AC50 [3]: > 10 µM; AC50 [4]: > 10 µM; AC50 (Motilin receptor): > 10 µM; AC50 [5]: > 10 µM; AC50 [6]: > 30 µM; AC50 [7]: > 30 µM
COC(c1ccccc1)(c1ccccc1)[C@H](Oc1nc(C)cc(C)n1)C(=O)O [AMBRISENTAN] | > 30 µM | > 30 µM | > 30 µM | 
CCc1oc2ccccc2c1C(=O)c1cc(I)c(O)c(I)c1 [BENZIODARONE] |  | > 30 µM | 9.64 µM | 
CN(C)CCn1nnnc1SCC1=C(C(=O)O)N2C(=O)[C@@H](NC(=O)Cc3csc(N)n3)[C@H]2SC1 [CEFOTIAM] | > 30 µM | > 30 µM | > 30 µM | 
COCc1c(C(C)C)nc(C(C)C)c(/C=C/[C@@H](O)C[C@@H](O)CC(=O)O)c1-c1ccc(F)cc1 [CERIVASTATIN] | > 30 µM | > 30 µM | > 30 µM | 
Oc1c(Cl)cc(Cl)c2cccnc12 [CHLOROXINE] | > 30 µM | > 30 µM | > 30 µM | 
C[N+](C)(C)CCO [CHOLINE] | > 30 µM | > 30 µM | > 30 µM | 
CN(C)[C@@H](c1cccc(O)c1)[C@H]1CCCC[C@H]1O [CIRAMADOL] | > 30 µM | > 30 µM | 0.0059 µM | 
CN(C)/N=N/c1[nH]cnc1C(N)=O [DACARBAZINE] |  |  |  | AC50 [1]: > 10 µM; AC50 [2]: > 10 µM; AC50 [3]: > 10 µM; AC50 [4]: > 10 µM; AC50 (Motilin receptor): > 10 µM; AC50 [5]: > 10 µM; AC50 [6]: > 30 µM; AC50 [7]: > 10 µM
CN(C)CC(c1ccc(O)cc1)C1(O)CCCCC1 (configuration not stated) [DESVENLAFAXINE] | > 30 µM | > 30 µM | 28.4 µM | 
CN(C)CCN1C(=O)c2ccccc2N(C)c2ccccc21 [DIBENZEPIN] | 22.5 µM | > 30 µM | 28.8 µM | 
N[C@H](C(=O)O)[C@H](O)c1ccc(O)c(O)c1 [DROXIDOPA] | 10.4 µM | > 30 µM | > 30 µM | 
C[C@]12CC[C@@H]3c4ccc(O)cc4CC[C@H]3[C@@H]1C[C@@H](O)[C@@H]2O [ESTRIOL] | > 30 µM | > 30 µM | > 30 µM | 
Cc1cc(C#N)cc(C)c1Oc1nc(Nc2ccc(C#N)cc2)nc(N)c1Br [ETRAVIRINE] | > 10 µM | > 30 µM | 19.1 µM | 
O=C(O)c1cc(O)ccc1O [GENTISIC ACID] | > 30 µM | > 30 µM | > 30 µM | 
CCC1=C(C)CN(C(=O)NCCc2ccc(S(=O)(=O)NC(=O)N[C@H]3CC[C@H](C)CC3)cc2)C1=O [GLIMEPIRIDE] | > 30 µM | > 30 µM | > 30 µM | 
C[N+]1(C)CCC(OC(=O)C(O)(c2ccccc2)C2CCCC2)C1 (configuration not stated) [GLYCOPYRRONIUM BROMIDE] |  | > 30 µM |  | AC50 (Motilin receptor): > 10 µM; AC50 [6]: > 30 µM
O=P1(NCCCl)OCCCN1CCCl (configuration not stated) [IFOSFAMIDE] |  |  |  | AC50 [1]: > 30 µM; AC50 [2]: > 30 µM; AC50 [3]: > 30 µM; AC50 [4]: > 30 µM; AC50 (Motilin receptor): > 30 µM; AC50 [5]: > 30 µM; AC50 [6]: > 30 µM; AC50 [7]: > 30 µM

Structure (SMILES) | AC50 [8] | AC50 (Prothrombin) | AC50 (Mu-type opioid receptor) | also measured
CC(C)Nc1ncccn1 [ISAXONINE] | > 30 µM | > 30 µM | > 30 µM | 
N[C@@H](C(=O)N[C@@H]1C(=O)N2C(C(=O)O)=C(Cl)CC[C@H]12)c1ccccc1 [LORACARBEF ANHYDROUS] | > 30 µM | > 30 µM | > 30 µM | 
Cc1cccc(Nc2ccccc2C(=O)O)c1C [MEFENAMIC ACID] | > 30 µM | > 30 µM | > 30 µM | AC50 [1]: > 10 µM; AC50 [2]: > 10 µM; AC50 [3]: > 10 µM; AC50 [4]: > 10 µM; AC50 (Motilin receptor): > 10 µM; AC50 [5]: > 10 µM; AC50 [6]: > 30 µM; AC50 [7]: > 10 µM
OCCN1C[C@H](O)[C@@H](O)[C@H](O)[C@H]1CO [MIGLITOL] | > 30 µM | > 30 µM | > 30 µM | 
Clc1ccc(C(c2ccccc2Cl)C(Cl)Cl)cc1 (configuration not stated) [MITOTANE] |  |  |  | AC50 [1]: > 10 µM; AC50 [2]: > 10 µM; AC50 [3]: > 10 µM; AC50 [4]: > 10 µM; AC50 (Motilin receptor): > 10 µM; AC50 [5]: > 10 µM; AC50 [6]: > 30 µM; AC50 [7]: > 10 µM
CC(=O)N[C@@H]1[C@@H](O)[C@H](O)[C@@H](CO)O[C@H]1O [N-ACETYLGLUCOSAMINE] | > 30 µM | > 30 µM | > 30 µM | 
O=C(CCNNC(=O)c1ccncc1)NCc1ccccc1 [NIALAMIDE] | > 30 µM | > 30 µM | > 30 µM | 
CC[N+]1(C)[C@@H]2CC(OC(=O)[C@H](CO)c3ccccc3)C[C@H]1[C@@H]1O[C@@H]12 (some centres not stated) [OXITROPIUM] | > 30 µM | > 30 µM | > 30 µM | 
CC(C)(C)NC[C@H](O)COc1ccccc1C1CCCC1 [PENBUTOLOL] | > 30 µM | > 30 µM | 11.9 µM | 
CC(C)(S)[C@@H](N)C(=O)O [PENICILLAMINE] | > 30 µM | > 30 µM | > 30 µM | 
C1CCC(C(CC2CCCCN2)C2CCCCC2)CC1 (configuration not stated) [PERHEXILINE] |  |  |  | AC50 [1]: 11 µM; AC50 (Cannabinoid receptor 1): > 30 µM; AC50 [3]: > 30 µM; AC50 [4]: 9.1 µM; AC50 (Motilin receptor): 29 µM; AC50 [6]: > 30 µM; AC50 [7]: 7.05 µM
CN(C)S(=O)(=O)c1ccc2c(c1)N(CCCN1CCC(CCO)CC1)c1ccccc1S2 [PIPOTIAZINE] | > 30 µM | > 30 µM | 3.4 µM | 
COc1cc(NC(C)CCCN)c2ncccc2c1 (configuration not stated) [PRIMAQUINE] |  | > 30 µM |  | AC50 (Motilin receptor): > 30 µM; AC50 [6]: 12 µM
C=C[C@H]1C[N@@]2CC[C@H]1C[C@H]2[C@H](O)c1ccnc2ccc(OC)cc12 [QUININE] |  | > 30 µM | 8.38 µM | 
CCC(=O)NCC[C@@H]1CCc2ccc3c(c21)CCO3 [RAMELTEON] | > 30 µM | > 30 µM | > 30 µM | 
Clc1ccc2nsnc2c1NC1=NCCN1 [TIZANIDINE] |  |  |  | AC50 [9]: > 10 µM; AC50 [3]: > 10 µM; AC50 [4]: > 30 µM; AC50 (Motilin receptor): > 10 µM; AC50 [5]: > 10 µM; AC50 [6]: > 30 µM; AC50 [7]: > 10 µM
CCOC(=O)[C@H](CCc1ccccc1)N[C@@H](C)C(=O)N1[C@H](C(=O)O)C[C@H]2CCCC[C@@H]21 [TRANDOLAPRIL] | > 30 µM | > 30 µM | > 30 µM | 
CCCCCCOc1nsnc1C1=CCCN(C)C1 [XANOMELINE] | 13.2 µM | > 30 µM | > 30 µM | 

— ChEMBL document CHEMBL5291721, “A preclinical secondary pharmacology resource illuminates target-adverse drug reaction associations of marketed drugs” (Nat Commun, 2023)
